Results: patent publication US20150065421A1, “BASAL INSULIN THERAPY” (SANOFI, priority 2012, published 2015)

Tested on: people at high risk for vascular disease with either IFG, IGT, or early type 2 diabetes
Assay: ORIGIN trial: glycemic control (FPG, A1C)
Type: in vivo, human
Excerpt: Participants were asked to self-administer daily subcutaneous saline injections and to check their capillary glucose levels during a 10 day run-in period. Adherent participants were then provided with lifestyle advice and randomly allocated to either insulin glargine (Lantus™) or standard approaches to glycaemic control. Participants allocated to insulin glargine who were also taking a thiazolidinedione stopped that medication at the time of randomization; otherwise the insulin glargine was added to their glycemic regimen. These participants were instructed to inject insulin glargine in the evening, starting at 2, 4 or 6 units (depending on their initial FPG) and to increase the dose at least once per week targeting a self-measured FPG level ≦5.3 mmol/l (95 mg/dl) and ≧4 mmol/l (72 mg/dl). […] If participants developed uncontrolled hyperglycemia, investigators were permitted to add rapid-acting insulin. No other glucose-lowering medication could be added or increased. FPG levels were measured in the local laboratory at every visit and the results were regularly reviewed along with the dose of insulin to ensure that insulin was being effectively trirated. People not diagnosed with diabetes by the time of the penultimate study visit down-titrated insulin glargine by 10 units per day and stopped any metformin that was prescribed.
Outcomes and other data were collected at scheduled study visits at 0.5, 1, 2, and 4 months after randomization and every 4 months thereafter. Weight, waist and hip circumference were measured annually. HbA1c levels were assayed in local laboratories at every visit for the first year and then annually in people without diabetes and every 4 months for people with diabetes. A first morning urine collection was sent centrally and assayed for creatinine and albumin at baseline, 2 yrs and study end.
Participants assigned to standard therapy continued their prior oral therapies and were managed according to the investigators' judgement and local guidelines for glycemic control and therapeutic approaches. Investigators were advised not to prescribe insulin for standard participants unless they were on full doses of 2 or more oral agents. If insulin was added glargine was not to be used. Participants assigned to basal insulin glargine who were taking a thiazolidinedione prior to randomization stopped this medication but continued to take other glucose-lowering agents. Insulin glargine (Lantus®, Sanofi) was added to their regimen starting at 2 to 6 units daily, based on fasting glucose levels. Participants were advised to inject the insulin in the evening and to self-titrate the dosage using a simple algorithm supported by the site investigators. Self-measured, plasma-referenced fasting capillary blood glucose tests were done at least twice-weekly to guide titration, with the goal of achieving and maintaining fasting glucose 5.3 mmol/l (≦95 mg/dl). Other oral agents could be continued, reduced, or discontinued as judged appropriate during treatment with insulin glargine. The only oral agent that could be added (if not previously used) was metformin, which the site investigator initiated for individual participants at doses of 500-1000 mg/day if judged necessary to limit the risk of hypoglycemia. The importance of lifestyle management was continuously reinforced in both treatment groups.
In addition to self-measured glucose tests, venous blood for measurement of fasting plasma glucose (FPG) and A1C at local laboratories was collected at intervals during treatment. In the case of A1C, measurements were done at baseline, yearly thereafter, and at the end of treatment for all participants. Measurements of FPG were done annually and at the end of treatment for all participants in the glargine treatment group, and at baseline, after 2 years, and at the end of treatment for those using standard therapy. […]

[1] = fully adjusted logistic regression, glargine vs standard care, p<0.001
[2] = participants with diabetes, 2 years
[3] = participants with diabetes, 5 years
[4] = participants with diabetes, 7 years
[5] = participants without diabetes, 5 years
[6] = without diabetes at entry, throughout randomized treatment, both regimens

Question: Which results are given for “(Gly A21) Arg (B31) Arg (B32) human insulin [insulin glargine]”?
Answer: A1c (%), median (interquartile range) (Year 1, baseline 6.4): 5.9 (5.5, 6.4) %; FPG (mM), median (interquartile range) (Year 1, baseline 6.9): 5.2 (4.6, 5.9) mM; A1c (%), median (interquartile range) (Year 2): 6.0 (5.5, 6.5) %; FPG (mM), median (interquartile range) (Year 2): 5.0 (4.4, 5.8) mM; A1c (%), median (interquartile range) (Year 3): 6.0 (5.6, 6.6) %; FPG (mM), median (interquartile range) (Year 3): 5.0 (4.4, 5.7) mM; A1c (%), median (interquartile range) (Year 4): 6.1 (5.7, 6.7) %; FPG (mM), median (interquartile range) (Year 4): 5.1 (4.5, 5.8) mM; A1c (%), median (interquartile range) (Year 5): 6.2 (5.7, 6.8) %; FPG (mM), median (interquartile range) (Year 5): 5.1 (4.5, 6.0) mM; A1c (%), median (interquartile range) (Year 6): 6.3 (5.8, 6.8) %; FPG (mM), median (interquartile range) (Year 6): 5.2 (4.6, 6.1) mM; A1c (%), median (interquartile range) (Year 7): 6.2 (5.8, 7.1) %; FPG (mM), median (interquartile range) (Year 7): 5.2 (4.5, 6.3) mM; increase in the likelihood of maintaining mean A1C below 6.5% for 5 years (allocation to basal insulin glargine vs standard care): 2-3 fold; participants achieving a FPG level ≦5.2 mmol/l (by 1 year, maintained throughout the trial): 50%; participants achieving A1C <6.5% (diabetic subgroup, 1 year, 47% before treatment): 74%; participants achieving A1C <7.0% (diabetic subgroup, 1 year, 66% before treatment): 88%; participants achieving A1C <7.0% (diabetic subgroup, 5 years): 77%; participants achieving A1C <6.5% (diabetic subgroup, after 5 years): 60%; people achieving FPG levels below 5.3 mmol/l (95 mg/dl) (for most of the trial): more than 50%; people achieving FPG levels ≦6.0 mmol/l (108 mg/dl) (for most of the trial): 75%; OR (95% CI), 1-year A1C 6.5% (attainment) [1]: 2.50 (2.29-2.74); OR (95% CI), 1-year A1C 7.0% (attainment) [1]: 2.735 (2.440-3.067); OR (95% CI), 5-year mean A1C 6.5% (maintenance) [1]: 2.98; OR (95% CI), 5-year mean A1C 7.0% (maintenance) [1]: 2.408 (2.122-2.732); OR (95% CI), 5-year mean A1C 6.5% (maintenance) (fully adjusted logistic regression, glargine vs standard care, p<0.001, listed as Glargine): 2.975 (2.671-3.315); median A1C (inter-quartile range) (participants with diabetes, 1 year, baseline 6.5): 6.0 (5.5-6.5) %; median FPG (inter-quartile range) (participants with diabetes, 1 year, baseline 7.2): 5.2 (4.6-5.9) mmol/l; median A1C (inter-quartile range) [2]: 6.0 (5.6-6.6) %; median FPG (inter-quartile range) [2]: 5.0 (4.4-5.8) mmol/l; median A1C (inter-quartile range) [3]: 6.3 (5.8-6.9) %; median FPG (inter-quartile range) [3]: 5.1 (4.5-6.1) mmol/l; median A1C (inter-quartile range) [4]: 6.3 (5.8-6.9) %; median FPG (inter-quartile range) [4]: 5.3 (4.5-6.4) mmol/l; median A1C (participants without diabetes, 1 year, baseline 5.7): 5.6%; median FPG (inter-quartile range) (participants without diabetes, 1 year, baseline 6.1): 5.0 (4.5-5.5) mmol/l; median FPG (inter-quartile range) (participants without diabetes, 2 years): 4.9 (4.5-5.5) mmol/l; median A1C [5]: 5.8%; median FPG (inter-quartile range) [5]: 5.0 (4.5-5.7) mmol/l; median FPG (inter-quartile range) (participants without diabetes, 7 years): 5.1 (4.5-5.8) mmol/l; participants achieving A1C <6.5% [6]: more than 75%; participants achieving A1C <7.0% [6]: more than 90%
